{
  "source": "patent US9155719B2",
  "about": "“N-acetyl-DL-leucine, neuroprotective and retinoprotective medicament” (priority 2010, dated 2015)",
  "assay_type_in_all_cases": "in vivo, human",
  "key": {"[1]": {"tested_on": "patients with Retinitis Pigmentosa", "test": "Clinical observation, retinitis pigmentosa patients", "conditions": "seven patients: three 1 gr 2 times per day oral, four 2% eye drops 3 times per day", "procedure": "The invention will be even further illustrated by the description of the clinical examples which follow and which, of course, are not limiting in nature. In these examples, the active ingredient, the N-acetyl-DL-leucine, was administered continuously (i.e., at least once a day) in oral or topical form, in an amount of 2 gr per day in the case of the oral form and 2% in the case of eye drops. This disorder corresponds to a dystrophy in the photoreceptors (cones and rods). It is characterized by the appearance of night blindness in infancy or adolescence, progressive contractions of the equatorial annular peripheral visual filed and results in a substantial loss in visual acuity or even blindness by adulthood. The N-acetyl-DL-leucine was used and induced an improvement of visual function: Seven patients were treated: three of them received 1 gr 2 times per day via oral administration; and four of them were subjected to a topical administration (2% eye drops), 3 times per day. All of them noticed an improvement of their visual acuity and visual field."}, "[2]": {"tested_on": "patients with Starpardt's Disease", "test": "Clinical observation, Stargardt's disease twin patients", "conditions": "eye drops; one of two twin patients", "procedure": "The invention will be even further illustrated by the description of the clinical examples which follow and which, of course, are not limiting in nature. In these examples, the active ingredient, the N-acetyl-DL-leucine, was administered continuously (i.e., at least once a day) in oral or topical form, in an amount of 2 gr per day in the case of the oral form and 2% in the case of eye drops. Two twin patients treated with N-acetyl-DL-leucine in the form of eye drops noticed an improvement of their visual acuity by 1/10 for one of them, and by 2/10 to 3/10 for the […]."}, "[3]": {"tested_on": "patients with a macular degeneration", "test": "Clinical observation, age-related or myopia-related macular degeneration", "conditions": "eleven patients; eye drops or tablets", "procedure": "(§1) The invention will be even further illustrated by the description of the clinical examples which follow and which, of course, are not limiting in nature. In these examples, the active ingredient, the N-acetyl-DL-leucine, was administered continuously (i.e., at least once a day) in oral or topical form, in an amount of 2 gr per day in the case of the oral form and 2% in the case of eye drops. Eleven patients with a macular degeneration which were treated with N-acetyl-DL-leucine (eye drops or tablets) noticed an improvement of their visual acuity."}, "[4]": {"tested_on": "patients with known glaucoma", "test": "Clinical observation, glaucomatous neuropathy or glaucoma", "procedure": "as §1, with “Patients” for “Eleven patients”, “with known glaucoma experienced” for “with”, “decrease in their occular tension, and” for “macular degeneration which were treated with N-acetyl-DL-leucine (eye drops or tablets) noticed”, “acuity and visual field in a very short time as soon as the treatment was administrated. […] IV) Ametropia.” for “acuity.”"}, "patients with myopia": {"tested_on": "patients with myopia", "test": "Clinical observation, myopia", "conditions": "seven patients; eye drops", "procedure": "(§2) The invention will be even further illustrated by the description of the clinical examples which follow and which, of course, are not limiting in nature. In these examples, the active ingredient, the N-acetyl-DL-leucine, was administered continuously (i.e., at least once a day) in oral or topical form, in an amount of 2 gr per day in the case of the oral form and 2% in the case of eye drops. More particularly, but not exclusively, it relates to eyedrops composed of N-acetyl-DL-leucine, which are intended for improving (i.e., in the present case, decreasing) the effects of presbyopia, myopia, hypermetropia and astigmatism, for stabilizing them or even for reversing the evolutive course thereof. • Myopia: seven patients were evaluated and received the N-acetyl-DL-leucine in the form of eye drops. • Result: in addition to the improvement of their visual acuity, the visual field, the refractive value was reduced. One can deduce therefrom that the N-acetyl-DL-leucine not only improves vision but also treats myopia. • Presbyopia: fourteen patients received the N-acetyl-DL-leucine in the form of eye drops and experienced an improvement of their near vision and a decrease in presbyopia. […]"}, "patients with presbyopia": {"tested_on": "patients with presbyopia", "test": "Clinical observation, presbyopia", "conditions": "fourteen patients; eye drops", "procedure": "as §2"}, "[5]": {"tested_on": "patients with hypermetropia", "test": "Clinical observation, hypermetropia", "conditions": "eye drops", "procedure": "as §2"}, "astigmatic subjects": {"tested_on": "astigmatic subjects", "test": "Clinical observation, astigmatism", "conditions": "eye drops", "procedure": "as §2"}, "[6]": {"tested_on": "patients with visual difficulties at night (hemeralopia)", "test": "Clinical observation, night vision (hemeralopia)", "conditions": "all the patients with hemeralopia", "procedure": "as §1, with “drops.” for “drops. Eleven patients with a macular degeneration which were treated with N-acetyl-DL-leucine (eye drops or tablets) noticed an improvement of their visual acuity.”"}, "[7]": {"tested_on": "\"normal\" patients without ocular pathology (aging individuals)", "test": "Clinical observation, age-related physiological vision decline / normal patients", "conditions": "in many cases; absence of any occular pathology", "procedure": "as §1, with “[…] In many cases,” for “Eleven patients with a macular degeneration which were treated with”, “improved visual function (visual acuity, contrast vision and visual field) in the absence” for “(eye drops or tablets) noticed an improvement”, “any occular pathology.” for “their visual acuity.”"}},
  "data": [
    {"smiles": "CC(=O)NC(CC(C)C)C(=O)O", "note": "(racemic) [N-acetyl-DL-leucine]", "values": [
      {"measurement": "visual acuity", "setting": "[1]", "result": "improvement"},
      {"measurement": "visual field", "setting": "[1]", "result": "improvement"},
      {"measurement": "improvement of visual acuity", "setting": "[2]", "result": "1/10"},
      {"measurement": "visual acuity", "setting": "[3]", "result": "improvement"},
      {"measurement": "occular tension", "setting": "[4]; in a very short time as soon as the treatment was administrated", "result": "decrease"},
      {"measurement": "visual field", "setting": "[4]; oral route or eye drops", "result": "regression of the deficiency"},
      {"measurement": "visual acuity", "setting": "[4]; oral route or topical route (eye drops)", "result": "marked improvement"},
      {"measurement": "refractive value", "setting": "patients with myopia", "result": "reduced"},
      {"measurement": "visual acuity", "setting": "patients with myopia", "result": "improvement"},
      {"measurement": "visual field", "setting": "patients with myopia", "result": "improvement"},
      {"measurement": "near vision", "setting": "patients with presbyopia", "result": "improvement"},
      {"measurement": "presbyopia", "setting": "patients with presbyopia", "result": "decrease"},
      {"measurement": "observations in hypermetropia (near vision, ametropia)", "setting": "[5]", "result": "the same observations as for presbyopia"},
      {"measurement": "visual acuity", "setting": "astigmatic subjects", "result": "improvement"},
      {"measurement": "night vision", "setting": "[6]", "result": "greatly improved"},
      {"measurement": "visual function (visual acuity, contrast vision and visual field)", "setting": "[7]", "result": "improved"}
    ]}
  ]
}
